Laboratory results reported in patent US9481654B2, “Compositions and methods for inhibition of the JAK pathway” (Rigel Pharmaceuticals, Inc., priority 2006, dated 2016).

Columns and labels:
[1] = system: IFNγ induced ICAM-1 (CD54) up-regulation in U937 human monocytic cells (JAK/Stat pathway); assay: U937 IFNγ ICAM1 FACS Assay; type: cell-based; settings: Table III Example 6; 10 ng/mL IFNγ, 18-24 hours
Method in brief: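 Flow cytometry gave ICAM-1 (CD54) up-regulation as ICAM-APC geometric mean within the live-cell gate, alongside % viable cells. Human monocytic U937 cells received 3-fold serial compound dilutions for 30 min at 37 °C, followed by IFNγ stimulation lasting 18–24 h. Dose curves yielded EC50s.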

[2] = system: primary human T-cells (IL-2 induced proliferation, JAK-1/JAK-3, Stat-5); assay: Primary Human T-Cell Proliferation Assay Stimulated with IL-2 (CellTiter-Glo); type: cell-based; settings: Table III Example 4
Method in brief: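 Read-out is intracellular ATP luminescence (CellTiter-Glo) after 72 h at 37 °C of IL-2-driven growth. Cells, pre-stimulated via TCR and CD28 then washed free of IL-2, were resuspended in Yssel's medium, given 80 U/mL IL-2 in the cell suspension plus duplicate compound; unstimulated wells lacked IL-2.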

Compound	IC50 [1] [nM]	IC50 [2] [nM]
Cc1ccc(Nc2ncc(C)c(Nc3ccc(CNS(=O)(=O)C4CC4)cc3)n2)cc1S(=O)(=O)NC(C)C [Compound I-189, N4-(4-cyclopropylsulfonylaminomethyl)phenyl-N2-(3-isopropylaminosulfonyl-4-methyl)phenyl-5-methyl-2,4-pyrimidinediamine]	153	34.4
Cc1ccc(Nc2ncc(C)c(Nc3ccc(CNS(=O)(=O)C4CC4)cc3)n2)cc1S(=O)(=O)NCC1CC1 [Compound I-192, N2-(3-cyclopropylmethylaminosulfonyl-4-methyl)phenyl-N4-(4-cyclopropylsulfonylaminomethyl)phenyl-5-methyl-2,4-pyrimidinediamine]	260	43.4
Cc1cnc(Nc2cccc(S(=O)(=O)NC(C)C)c2)nc1Nc1ccc(CNS(=O)(=O)C2CC2)cc1 [Compound I-173, N4-(4-cyclopropylsulfonylaminomethyl)phenyl-N2-(3-isopropylaminosulfonyl)phenyl-5-methyl-2,4-pyrimidinediamine]	109	42.4
Cc1cnc(Nc2cccc(S(N)(=O)=O)c2)nc1Nc1ccc(CNS(=O)(=O)CC(F)(F)F)cc1 [Compound I-97, N2-(3-aminosulfonyl)phenyl-5-methyl-N4-(4-trifluoroethylsulfonylaminomethyl)phenyl-2,4-pyrimidinediamine]	257	48.8
COCCNS(=O)(=O)c1cc(Nc2ncc(C)c(Nc3cccc(CNS(=O)(=O)C4CC4)c3)n2)ccc1C [Compound I-210, N4-(3-cyclopropylsulfonylaminomethyl)phenyl-N2-[3-(2-methoxyethyl)aminosulfonyl-4-methyl]phenyl-5-methyl-2,4-pyrimidinediamine]	175	143
Cc1cnc(Nc2cc(S(N)(=O)=O)cc(S(N)(=O)=O)c2)nc1Nc1ccc(CNS(=O)(=O)C2CC2)cc1 [Compound I-84, N4-(4-cyclopropylsulfonylaminomethyl)phenyl-N2-(3,5-diaminosulfonyl)phenyl-5-methyl-2,4-pyrimidinediamine]	928	237
Cc1ccc(Nc2ncc(F)c(Nc3ccc(CNS(=O)(=O)C(C)C)cc3)n2)cc1S(N)(=O)=O [Compound I-67, N2-(3-aminosulfonyl-4-methyl)phenyl-5-fluoro-N4-(4-isopropylsulfonylaminomethyl)phenyl-2,4-pyrimidinediamine]	321	84.5
CCNS(=O)(=O)c1cccc(Nc2ncc(C)c(Nc3ccc(CNS(=O)(=O)C4CC4)cc3)n2)c1 [Compound I-176, N4-(4-cyclopropylsulfonylaminomethyl)phenyl-N2-(3-ethylaminosulfonyl)phenyl-5-methyl-2,4-pyrimidinediamine]	48.4	64.5
Cc1cnc(Nc2cccc(S(N)(=O)=O)c2)nc1Nc1ccc(CNS(=O)(=O)C2CC2)c(Cl)c1 [Compound I-119, N2-(3-aminosulfonyl)phenyl-N4-(3-chloro-4-cyclopropylsulfonylaminomethyl)phenyl-5-methyl-2,4-pyrimidinediamine]	535	95.4
CCCN(Cc1ccc(Nc2nc(Nc3cccc(S(N)(=O)=O)c3)ncc2C)cc1)S(=O)(=O)C1CC1 [Compound I-80, N2-(3-aminosulfonyl)phenyl-N4-[4-(N-cyclopropylsulfonyl-N-propylamino)methyl]phenyl-5-methyl-2,4-pyrimidinediamine]	143	46.3
CCS(=O)(=O)NCc1cccc(Nc2nc(Nc3ccc(C)c(S(N)(=O)=O)c3)ncc2F)c1 [Compound I-13, N2-(3-aminosulfonyl-4-methyl)phenyl-N4-(3-ethylsulfonylaminomethyl)phenyl-5-fluoro-2,4-pyrimidinediamine]	536	197
Cc1cnc(Nc2cccc(S(N)(=O)=O)c2)nc1Nc1ccc2c(c1)CN(S(=O)(=O)C1CC1)C2 [II-8, N2-(3-Aminosulfonyl-phenyl)-N4-[(2-cyclopropylsulfonyl)-isoindolin-5-yl]-5-methyl-2,4-pyrimidinediamine]	775	147
CCS(=O)(=O)NCc1cccc(Nc2nc(Nc3cccc(S(N)(=O)=O)c3)ncc2F)c1 [Compound I-12, N2-(3-aminosulfonyl)phenyl-N4-(3-ethylsulfonylaminomethyl)phenyl-5-fluoro-2,4-pyrimidinediamine]	1580	158
CCNS(=O)(=O)c1cccc(Nc2ncc(C)c(Nc3cccc(CNS(=O)(=O)C4CC4)c3)n2)c1 [Compound I-208, N4-(3-cyclopropylsulfonylaminomethyl)phenyl-N2-(3-ethylaminosulfonyl)phenyl-5-methyl-2,4-pyrimidinediamine]	257	45.8
Cc1cnc(Nc2cccc(S(=O)(=O)NCc3ccccc3)c2)nc1Nc1ccc(CNS(=O)(=O)C2CC2)cc1 [Compound I-154, N2-(3-benzylaminosulfonyl)phenyl-N4-(4-cyclopropylsulfonylaminomethyl)phenyl-5-methyl-2,4-pyrimidinediamine]	184	61.9
COCCNS(=O)(=O)c1cc(Nc2ncc(C)c(Nc3ccc(CNS(=O)(=O)C4CC4)cc3)n2)ccc1C [Compound I-190, N4-(4-cyclopropylsulfonylaminomethyl)phenyl-N2-[3-(2-methoxyethyl)aminosulfonyl-4-methyl]phenyl-5-methyl-2,4-pyrimidinediamine]	187	101
CNS(=O)(=O)c1ccc(Nc2ncc(C)c(Nc3cccc(CNS(=O)(=O)C4CC4)c3)n2)cc1 [Compound I-207, N4-(3-cyclopropylsulfonylaminomethyl)phenyl-5-methyl-N2-(4-methylaminosulfonyl)phenyl-2,4-pyrimidinediamine]	312	158
